Experimental data as given in patent US10407429B2, “Pyrazolo[1,5-a]triazin-4-amine derivatives useful in therapy” (Curovir AB, priority 2015, dated 2019).
Read-outs that look alike come from different tables or passages of the source.

Legend:
Enterovirus 71 = experiment: Antiviral CPE assay in mammalian cell culture; format: cell-based; details: Enterovirus A, EV71, prevention of viral CPE, read-out: inhibition capacity (IC50) EV71
coxsackie B2 virus = experiment: Antiviral CPE assay in mammalian cell culture; format: cell-based; details: read-out: inhibition capacity (IC50) B2
polio virus Sabin 1 = experiment: organism not typed; format: cell-based; details: read-out: inhibition capacity (IC50) Polio 1
PI4KIIIβ = PI4KIIIβ (Homo sapiens, UniProt Q9UBF8); experiment: Phosphatidyl inositol kinase inhibition assay (ADP-Glo Kinase Assay); format: biochemical
Chain of PI4KIIIβ (Q9UBF8 whole entry): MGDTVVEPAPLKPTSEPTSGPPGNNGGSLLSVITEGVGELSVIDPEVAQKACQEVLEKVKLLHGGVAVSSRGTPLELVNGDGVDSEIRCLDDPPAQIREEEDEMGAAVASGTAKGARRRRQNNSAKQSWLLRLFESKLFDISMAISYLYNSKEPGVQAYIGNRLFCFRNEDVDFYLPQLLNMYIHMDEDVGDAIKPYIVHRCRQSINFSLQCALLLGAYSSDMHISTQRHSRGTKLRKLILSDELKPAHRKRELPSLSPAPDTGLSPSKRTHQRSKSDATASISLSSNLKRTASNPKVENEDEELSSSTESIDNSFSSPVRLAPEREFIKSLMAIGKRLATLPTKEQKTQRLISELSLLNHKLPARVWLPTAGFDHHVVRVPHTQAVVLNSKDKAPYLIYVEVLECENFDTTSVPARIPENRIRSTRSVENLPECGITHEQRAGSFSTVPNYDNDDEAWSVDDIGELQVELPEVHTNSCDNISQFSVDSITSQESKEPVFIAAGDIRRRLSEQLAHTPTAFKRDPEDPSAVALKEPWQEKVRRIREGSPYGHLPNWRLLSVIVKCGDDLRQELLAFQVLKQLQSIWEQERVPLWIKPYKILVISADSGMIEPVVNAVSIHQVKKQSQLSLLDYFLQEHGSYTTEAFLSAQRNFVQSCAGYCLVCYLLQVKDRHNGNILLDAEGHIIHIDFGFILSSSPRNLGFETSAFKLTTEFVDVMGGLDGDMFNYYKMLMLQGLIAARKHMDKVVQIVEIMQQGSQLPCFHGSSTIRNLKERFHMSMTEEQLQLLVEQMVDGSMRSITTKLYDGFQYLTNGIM
Description: (§1) Phosphatidyl Inositol Kinase Inhibition Assay Inhibition of PI4 kinases was studied using the ADP-Glo™ Kinase Assay which is a luminescent kinase assay that measures ADP formed from a kinase reaction; ADP is converted into ATP, which is converted into light by Ultra-Glo™ Luciferase. The assay is performed in two steps; first, after the kinase reaction, an equal volume of ADP-Glo™ Reagent is added to terminate the kinase reaction and deplete the remaining ATP. In the second step, the Kinase Detection Reagent is added, which simultaneously converts ADP to ATP and allows the newly synthesized ATP to be measured using a coupled luciferase/luciferin reaction. The luminescent signal produced is proportional to the activity of the kinase.

PI4KIIIα = PI4KIIIα (Homo sapiens, UniProt P42356); experiment: as above; format: biochemical
Chain of PI4KIIIα (P42356 whole entry): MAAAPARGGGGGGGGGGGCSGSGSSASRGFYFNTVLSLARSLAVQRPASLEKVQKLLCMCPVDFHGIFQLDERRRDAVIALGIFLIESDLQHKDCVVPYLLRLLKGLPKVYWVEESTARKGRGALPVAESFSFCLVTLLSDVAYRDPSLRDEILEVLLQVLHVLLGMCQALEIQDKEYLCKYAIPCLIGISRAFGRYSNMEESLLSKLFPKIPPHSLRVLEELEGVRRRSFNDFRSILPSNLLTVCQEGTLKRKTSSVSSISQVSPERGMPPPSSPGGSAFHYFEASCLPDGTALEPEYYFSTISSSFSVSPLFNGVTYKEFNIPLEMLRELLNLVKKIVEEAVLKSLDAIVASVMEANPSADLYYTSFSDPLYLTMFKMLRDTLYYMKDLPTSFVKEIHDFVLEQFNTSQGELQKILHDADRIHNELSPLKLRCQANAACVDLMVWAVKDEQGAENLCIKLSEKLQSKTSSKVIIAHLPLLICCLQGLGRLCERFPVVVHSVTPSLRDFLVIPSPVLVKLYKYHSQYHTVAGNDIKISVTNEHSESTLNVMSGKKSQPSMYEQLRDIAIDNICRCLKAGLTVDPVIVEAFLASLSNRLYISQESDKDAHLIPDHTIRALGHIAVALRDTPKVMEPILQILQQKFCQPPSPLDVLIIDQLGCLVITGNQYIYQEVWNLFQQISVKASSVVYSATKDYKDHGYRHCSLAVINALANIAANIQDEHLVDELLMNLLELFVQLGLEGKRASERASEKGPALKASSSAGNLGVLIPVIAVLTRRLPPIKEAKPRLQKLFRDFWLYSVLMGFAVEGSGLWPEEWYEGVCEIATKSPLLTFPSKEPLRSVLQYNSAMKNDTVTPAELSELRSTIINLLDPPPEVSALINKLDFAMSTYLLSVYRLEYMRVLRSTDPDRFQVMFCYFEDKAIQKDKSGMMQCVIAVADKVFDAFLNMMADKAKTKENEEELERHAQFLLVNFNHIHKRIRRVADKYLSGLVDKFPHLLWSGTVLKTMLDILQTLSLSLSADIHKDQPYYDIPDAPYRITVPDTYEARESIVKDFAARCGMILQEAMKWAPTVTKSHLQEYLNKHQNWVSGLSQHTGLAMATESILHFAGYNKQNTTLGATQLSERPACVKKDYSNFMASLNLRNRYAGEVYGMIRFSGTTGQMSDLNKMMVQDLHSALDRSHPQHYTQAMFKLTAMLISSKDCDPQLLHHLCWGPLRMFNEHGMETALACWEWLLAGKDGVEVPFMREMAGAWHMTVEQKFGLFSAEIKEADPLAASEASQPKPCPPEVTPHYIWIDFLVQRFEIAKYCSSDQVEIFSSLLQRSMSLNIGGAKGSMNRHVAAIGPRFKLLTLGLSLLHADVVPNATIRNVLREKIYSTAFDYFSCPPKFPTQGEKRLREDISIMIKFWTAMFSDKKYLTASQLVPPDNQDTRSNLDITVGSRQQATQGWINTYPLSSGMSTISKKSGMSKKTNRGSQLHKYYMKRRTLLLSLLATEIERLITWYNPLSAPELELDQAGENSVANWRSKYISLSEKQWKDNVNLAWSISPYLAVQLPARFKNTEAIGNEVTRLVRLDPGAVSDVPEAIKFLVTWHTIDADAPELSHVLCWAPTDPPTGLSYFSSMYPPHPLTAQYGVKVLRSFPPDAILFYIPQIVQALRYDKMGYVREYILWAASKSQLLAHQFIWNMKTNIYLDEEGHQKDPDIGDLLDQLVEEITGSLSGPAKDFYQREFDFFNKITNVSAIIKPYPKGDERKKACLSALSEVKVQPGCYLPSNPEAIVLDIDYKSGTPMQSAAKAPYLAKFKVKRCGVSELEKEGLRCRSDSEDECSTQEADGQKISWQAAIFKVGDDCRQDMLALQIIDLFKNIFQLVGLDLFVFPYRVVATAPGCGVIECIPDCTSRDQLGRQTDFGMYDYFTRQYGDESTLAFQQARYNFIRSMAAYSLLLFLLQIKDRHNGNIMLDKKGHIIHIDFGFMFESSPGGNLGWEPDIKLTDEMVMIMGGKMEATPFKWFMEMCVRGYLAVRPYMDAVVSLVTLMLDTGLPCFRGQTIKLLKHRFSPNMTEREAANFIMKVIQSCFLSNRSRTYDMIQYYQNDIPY
Description: as §1

PI3Kα = PI3Kα (Homo sapiens, UniProt P42336); experiment: Phosphatidyl inositol kinase inhibition assay (HTRF); format: biochemical
Text: (§2) Phosphatidyl Inositol Kinase Inhibition Assay
(§3) Inhibition of PI3 kinases was studied using the HTRF (homogeneous time-resolved fluorescence) assay which is a universal method for identifying and characterizing the phosphotransferase activity induced by any ATP/ADP dependent target. The formation of ADP is detected by a specific monoclonal antibody labeled with Eu^3+ cryptate, and directly correlates with the amount of phosphorylated substrate in kinase assays

PI3Kβ = PI3Kβ (Homo sapiens, UniProt P42338); experiment: as above; format: biochemical
Chain of PI3Kβ (P42338 whole entry, species assumed): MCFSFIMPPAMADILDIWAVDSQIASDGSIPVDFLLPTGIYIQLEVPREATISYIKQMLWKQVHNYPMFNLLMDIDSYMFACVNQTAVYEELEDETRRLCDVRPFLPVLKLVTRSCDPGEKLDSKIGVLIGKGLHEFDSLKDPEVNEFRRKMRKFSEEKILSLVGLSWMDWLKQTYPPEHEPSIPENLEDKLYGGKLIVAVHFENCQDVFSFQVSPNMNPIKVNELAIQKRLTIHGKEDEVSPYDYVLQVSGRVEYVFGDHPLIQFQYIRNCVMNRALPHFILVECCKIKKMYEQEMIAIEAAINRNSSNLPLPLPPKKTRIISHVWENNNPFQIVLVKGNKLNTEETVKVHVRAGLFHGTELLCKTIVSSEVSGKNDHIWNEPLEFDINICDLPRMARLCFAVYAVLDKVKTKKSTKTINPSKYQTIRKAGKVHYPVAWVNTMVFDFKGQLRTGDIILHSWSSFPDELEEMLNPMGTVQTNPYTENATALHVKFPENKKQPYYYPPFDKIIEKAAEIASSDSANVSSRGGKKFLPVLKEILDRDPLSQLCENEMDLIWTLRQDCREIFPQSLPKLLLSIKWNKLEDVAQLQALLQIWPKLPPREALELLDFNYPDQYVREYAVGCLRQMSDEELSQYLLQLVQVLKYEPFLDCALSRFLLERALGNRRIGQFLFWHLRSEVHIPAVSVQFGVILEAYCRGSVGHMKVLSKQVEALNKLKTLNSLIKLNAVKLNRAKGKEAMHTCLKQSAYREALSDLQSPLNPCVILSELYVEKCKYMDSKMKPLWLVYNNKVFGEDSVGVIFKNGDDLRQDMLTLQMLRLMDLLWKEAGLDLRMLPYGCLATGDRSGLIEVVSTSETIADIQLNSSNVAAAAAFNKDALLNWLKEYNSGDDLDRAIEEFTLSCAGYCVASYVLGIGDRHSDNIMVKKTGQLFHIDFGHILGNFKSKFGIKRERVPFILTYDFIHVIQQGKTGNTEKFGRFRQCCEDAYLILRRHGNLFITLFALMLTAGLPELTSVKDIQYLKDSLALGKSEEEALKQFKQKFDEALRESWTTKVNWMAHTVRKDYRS
Chain of PI3Kβ (P27986 whole entry partner, species assumed): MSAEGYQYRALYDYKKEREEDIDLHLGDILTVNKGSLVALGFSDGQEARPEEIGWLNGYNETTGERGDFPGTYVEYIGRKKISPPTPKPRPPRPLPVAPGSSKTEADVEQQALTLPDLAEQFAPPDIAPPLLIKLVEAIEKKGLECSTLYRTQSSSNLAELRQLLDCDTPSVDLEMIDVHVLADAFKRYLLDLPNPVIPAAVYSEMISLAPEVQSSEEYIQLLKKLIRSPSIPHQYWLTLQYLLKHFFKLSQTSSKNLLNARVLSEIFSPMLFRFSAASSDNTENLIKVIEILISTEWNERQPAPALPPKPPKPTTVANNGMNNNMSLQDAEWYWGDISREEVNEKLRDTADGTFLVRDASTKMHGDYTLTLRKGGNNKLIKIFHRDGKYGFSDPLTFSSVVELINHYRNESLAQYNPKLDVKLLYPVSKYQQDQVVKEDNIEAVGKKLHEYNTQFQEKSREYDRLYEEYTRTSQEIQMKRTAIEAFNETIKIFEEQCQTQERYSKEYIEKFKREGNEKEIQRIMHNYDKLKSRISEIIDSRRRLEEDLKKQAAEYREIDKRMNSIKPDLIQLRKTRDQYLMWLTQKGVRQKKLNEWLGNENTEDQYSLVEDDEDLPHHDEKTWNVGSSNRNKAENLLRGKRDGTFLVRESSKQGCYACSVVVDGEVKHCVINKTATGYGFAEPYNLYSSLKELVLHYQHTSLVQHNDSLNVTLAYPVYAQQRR
Text: as §2, §3

Enterovirus 6 = experiment: Antiviral CPE assay in mammalian cell culture; format: cell-based; details: prevention of viral CPE, read-out: inhibition capacity (IC50) EV6
coxsackie B1 virus = experiment: Antiviral CPE assay in mammalian cell culture; format: cell-based; details: read-out: inhibition capacity (IC50) Bl
Enterovirus 30 = experiment: Antiviral CPE assay in mammalian cell culture; format: cell-based; details: read-out: inhibition capacity (IC50) EV30
Enterovirus 68 = experiment: Antiviral CPE assay in mammalian cell culture; format: cell-based; details: Enterovirus D
coxsackie B 4 virus = experiment: Antiviral CPE assay in mammalian cell culture; format: cell-based; details: Enterovirus B
coxsackie B3 virus = experiment: Antiviral CPE assay in mammalian cell culture; format: cell-based; details: Enterovirus B
coxsackie B5virus = experiment: Antiviral CPE assay in mammalian cell culture; format: cell-based; details: read-out: inhibition capacity (IC50) B5
[1] = EV68, read-out: inhibition capacity (IC50) EV68
[2] = B4, read-out: inhibition capacity (IC50) B4
[3] = B3, read-out: inhibition capacity (IC50) B3

Row | SMILES | IC50 (Enterovirus 71) [µM] | IC50 (coxsackie B2 virus) [µM] | IC50 (polio virus Sabin 1) [µM] | IC50 (Enterovirus 6) [µM] | IC50 (coxsackie B1 virus) [µM] | IC50 (Enterovirus 30; Enterovirus) [µM] | IC50 (Enterovirus 68; [1]) [µM] | IC50 (coxsackie B 4 virus; [2]) [µM] | IC50 (coxsackie B3 virus; [3]) [µM] | IC50 (coxsackie B5virus) [µM] | other results
1 | COc1ccc(-c2c(C)nn3c(NCc4ccncc4)nc(C)nc23)cc1OC [Example 6, 8-(3,4-dimethoxyphenyl)-2,7-dimethyl-N-(4-pyridylmethyl)pyrazolo[1,5-a][1,3,5]triazin-4-amine] | < 0.01 | < 0.01 | < 0.01 | < 0.01 | < 0.01 | < 0.1 | < 0.01 | < 0.01 | < 0.01 | < 0.01 | IC50 (PI4KIIIβ): 0.0013 µM; IC50 (PI4KIIIα): 3.2 µM; IC50 (PI3Kα): 7.3 µM; IC50 (PI3Kβ): > 10 µM
2 | COc1ccc(-c2c(C)nn3c(NCc4ccc(S(N)(=O)=O)cc4)nc(C)nc23)cc1OC [Example 14, 4-[[[8-(3,4-dimethoxyphenyl)-2,7-dimethyl-pyrazolo[1,5-a][1,3,5]triazin-4-yl]amino]methyl]benzenesulfonamide] | < 0.01 | < 0.1 | < 0.01 | – | < 0.1 | < 0.01 | < 0.01 | < 0.1 | < 0.1 | < 0.01 | IC50 (PI4KIIIβ): 0.0021 µM; IC50 (PI4KIIIα): 1.3 µM; IC50 (PI3Kα): > 10 µM; IC50 (PI3Kβ): > 10 µM
3 | COc1ccc(-c2c(C)nn3c(NCc4cccnc4)nc(C)nc23)cc1OC [Example 22, 8-(3,4-dimethoxyphenyl)-2,7-dimethyl-N-(3-pyridylmethyl)pyrazolo[1,5-a][1,3,5]triazin-4-amine] | < 0.1 | < 0.1 | < 0.1 | < 0.1 | < 0.1 | < 0.1 | < 0.1 | < 0.1 | < 0.1 | < 0.1 | –
4 | COc1ccc(-c2c(C)nn3c(NCc4ccc(C)o4)nc(C)nc23)cc1OC [Example 23, 8-(3,4-dimethoxyphenyl)-2,7-dimethyl-N-[(5-methyl-2-furyl)methyl]pyrazolo[1,5-a][1,3,5]triazin-4-amine] | < 0.1 | < 0.1 | < 0.01 | < 0.1 | < 0.01 | < 0.1 | < 0.1 | < 0.01 | < 0.1 | < 0.1 | –
5 | COC(=O)NS(=O)(=O)c1ccc(CNc2nc(C)nc3c(-c4ccc(OC)c(OC)c4)c(C)nn23)cc1 [Example 24, methyl N-[4-[[[8-(3,4-dimethoxyphenyl)-2,7-dimethyl-pyrazolo[1,5-a][1,3,5]triazin-4-yl]amino]methyl]phenyl]sulfonylcarbamate] | < 1 | < 1 | < 1 | > 1 | > 1 | > 1 | < 1 | < 1 | > 1 | > 1 | –
6 | CCC(=O)NS(=O)(=O)c1ccc(CNc2nc(C)nc3c(-c4ccc(OC)c(OC)c4)c(C)nn23)cc1 [Example 25, N-[4-[[[8-(3,4-dimethoxyphenyl)-2,7-dimethyl-pyrazolo[1,5-a][1,3,5]triazin-4-yl]amino]methyl]phenyl]sulfonylpropanamide] | > 1 | > 1 | > 1 | > 1 | > 1 | > 1 | < 1 | > 1 | > 1 | > 1 | –
7 | CNS(=O)(=O)c1ccc(CNc2nc(C)nc3c(-c4ccc(OC)c(OC)c4)c(C)nn23)cc1 [Example 26, N-methyl-4-[[[8-(3,4-dimethoxyphenyl)-2,7-dimethyl-pyrazolo[1,5-a][1,3,5]triazin-4-yl]amino]methyl]benzenesulfonamide] | < 1 | < 0.1 | < 0.1 | < 1 | < 1 | < 1 | > 1 | < 0.1 | < 1 | < 1 | –
8 | COc1ccc(-c2c(C)nn3c(NCc4ccn(C)n4)nc(C)nc23)cc1OC [Example 27, 8-(3,4-dimethoxyphenyl)-2,7-dimethyl-N-[(1-methyl-1H-pyrazol-3-yl)methyl]pyrazolo[1,5-a][1,3,5]triazin-4-amine] | < 0.1 | < 0.01 | < 0.01 | < 1 | < 0.01 | < 0.1 | < 0.01 | < 0.01 | < 0.1 | < 0.1 | –
9 | COc1ccc(-c2c(C)nn3c(NCc4cnco4)nc(C)nc23)cc1OC [Example 28, 8-(3,4-dimethoxyphenyl)-2,7-dimethyl-N-[(1,3-oxazol-5-yl)methyl]pyrazolo[1,5-a][1,3,5]triazin-4-amine] | < 0.1 | < 0.1 | < 0.1 | < 0.1 | < 0.1 | > 1 | < 0.01 | < 0.1 | < 0.1 | < 1 | –
10 | COc1ccc(-c2c(C)nn3c(NCC4CCNCC4)nc(C)nc23)cc1OC [Example 29, 8-(3,4-dimethoxyphenyl)-2,7-dimethyl-N-[(piperidin-4-yl)methyl]pyrazolo[1,5-a][1,3,5]triazin-4-amine] | > 1 | > 1 | > 1 | > 1 | > 1 | > 1 | > 1 | > 1 | > 1 | > 1 | –
11 | COc1ccc(-c2c(C)nn3c(NCc4cnc(C)nc4)nc(C)nc23)cc1OC [Example 30, 8-(3,4-dimethoxyphenyl)-2,7-dimethyl-N-[(2-methylpyrimidin-5-yl)methyl]pyrazolo[1,5-a][1,3,5]triazin-4-amine] | < 0.1 | < 1 | < 0.1 | < 1 | < 1 | < 0.1 | < 0.1 | < 0.1 | < 1 | < 1 | –
12 | COc1ccc(-c2c(C)nn3c(NCc4ccnnc4)nc(C)nc23)cc1OC [Example 31, 8-(3,4-dimethoxyphenyl)-2,7-dimethyl-N-[(pyridazin-4-yl)methyl]pyrazolo[1,5-a][1,3,5]triazin-4-amine] | < 0.1 | < 1 | < 1 | < 1 | < 1 | > 1 | < 0.1 | < 0.01 | < 1 | < 1 | –
13 | COc1ccc(-c2c(C)nn3c(NCc4ccc(C)nc4)nc(C)nc23)cc1OC [Example 32, 8-(3,4-dimethoxyphenyl)-2,7-dimethyl-N-[(6-methylpyridin-3-yl)methyl]pyrazolo[1,5-a][1,3,5]triazin-4-amine] | < 0.1 | – | < 0.1 | < 0.1 | – | – | – | – | – | – | IC50 (coxsackie B2 virus; prevention of viral CPE, mammalian cell culture, coxsackie B2 virus): < 0.1 µM; IC50 (coxsackie B1 virus; prevention of viral CPE, mammalian cell culture, coxsackie B1 virus): < 0.1 µM; IC50 (Enterovirus 30; prevention of viral CPE, mammalian cell culture, Enterovirus 30): < 0.01 µM; IC50 (Enterovirus 68; EV68, prevention of viral CPE, mammalian cell culture, Enterovirus 68, read-out: inhibition capacity (IC50) EV68): < 0.1 µM; IC50 (coxsackie B 4 virus; prevention of viral CPE, mammalian cell culture, coxsackie B4 virus, read-out: inhibition capacity (IC50) B4): < 0.1 µM; IC50 (coxsackie B3 virus; prevention of viral CPE, mammalian cell culture, coxsackie B3 virus, read-out: inhibition capacity (IC50) B3): < 0.01 µM; IC50 (coxsackie B5virus; prevention of viral CPE, mammalian cell culture, coxsackie B5 virus): < 0.1 µM
